Measurements: US20010039287A1, “AROMATIC SULFONE HYDROXAMIC ACID METALLOPROTEASE INHIBITOR” (priority 1997, published 2001)
pIC50: −log10 of the molar value. Counter-ions that a name gives are not always drawn. Like-named read-outs stand apart in the source and are kept apart here.

Tests used:
Test in all cases: biochemical
[1] = target: T1, recombinant human MMP-1 (Homo sapiens, UniProt P03956); conditions: read-out: MMP-1 IC50
T1 construct: made in house; host or cells: transfected HT-1080 cells (provided by Dr. Harold Welgus, Washington University)
T1 sequence (P03956 100-469): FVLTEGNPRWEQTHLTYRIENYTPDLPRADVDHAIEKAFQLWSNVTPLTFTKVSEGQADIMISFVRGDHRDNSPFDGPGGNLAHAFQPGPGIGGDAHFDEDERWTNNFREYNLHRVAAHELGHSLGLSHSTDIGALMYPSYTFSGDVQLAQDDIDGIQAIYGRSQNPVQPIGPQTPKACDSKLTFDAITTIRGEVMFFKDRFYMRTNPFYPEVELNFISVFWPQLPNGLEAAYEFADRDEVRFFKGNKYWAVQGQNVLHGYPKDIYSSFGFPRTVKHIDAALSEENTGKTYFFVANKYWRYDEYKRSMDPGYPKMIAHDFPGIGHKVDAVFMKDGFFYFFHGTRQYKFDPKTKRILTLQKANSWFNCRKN

[2] = target: recombinant human MMP-13 (Homo sapiens, UniProt P45452)
[3] = target: T2, recombinant human MMP-2 (Homo sapiens, UniProt P08253); conditions: for pIC50: read-out: MMP-2 IC50; for IC50: MMP-2 IC50 (nM)
T2 sequence (P08253 110-660): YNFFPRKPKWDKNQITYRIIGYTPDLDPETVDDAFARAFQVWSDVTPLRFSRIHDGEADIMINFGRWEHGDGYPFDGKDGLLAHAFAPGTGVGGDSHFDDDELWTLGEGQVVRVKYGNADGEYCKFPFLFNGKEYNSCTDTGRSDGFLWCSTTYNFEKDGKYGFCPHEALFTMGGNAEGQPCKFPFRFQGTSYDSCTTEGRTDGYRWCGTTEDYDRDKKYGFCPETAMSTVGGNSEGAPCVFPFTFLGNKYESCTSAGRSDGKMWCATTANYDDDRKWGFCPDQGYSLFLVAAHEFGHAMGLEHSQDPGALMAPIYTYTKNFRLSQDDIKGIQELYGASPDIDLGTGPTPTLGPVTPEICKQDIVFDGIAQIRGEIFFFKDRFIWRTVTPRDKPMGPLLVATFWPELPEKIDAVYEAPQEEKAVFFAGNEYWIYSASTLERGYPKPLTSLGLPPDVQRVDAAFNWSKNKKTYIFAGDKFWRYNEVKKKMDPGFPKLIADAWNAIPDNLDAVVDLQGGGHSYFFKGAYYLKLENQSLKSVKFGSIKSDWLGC

[4] = Inhibition Table A, read-out: MMP-13 IC50
[5] = Inhibition Table B, read-out: MMP-13 IC50

SMILES	pIC50 ([1]; Inhibition Table A)	pIC50 [2, 4]	pIC50 ([1]; Inhibition Table B)	pIC50 [2, 5]	pIC50 ([3]; Inhibition Table B)	other results
CC(C)(C)OC(=O)N1CCC(C(=O)NO)(S(=O)(=O)c2ccc(Oc3ccccc3)cc2)CC1 [Example 3]	5.94	9.52				pIC50 ([3]; Inhibition Table A): 9.70
O=C(NO)/C(=C\c1ccccc1)S(=O)(=O)c1ccc(Oc2ccccc2)cc1 [Example 5]	< 5.00	5.32				pIC50 ([3]; Inhibition Table A): 5.74
O=C(CS(=O)(=O)c1ccc(NC(=O)c2ccccc2)cc1)NO [Example 7]	< 5.00					pIC50 ([3]; Inhibition Table A): 8.74
O=C(Nc1ccc(S(=O)(=O)C2(C(=O)NO)CCNCC2)cc1)c1ccccc1 [Example 8]	< 5.00	7.62				
O=C(NO)C1(S(=O)(=O)c2ccc(N3CCC(c4ccccc4)CC3)cc2)CCOCC1 [Example 11]	< 5.00	8.22				IC50 [3]: 4.4 nM
CN1CCC(C(=O)NO)(S(=O)(=O)c2ccc(Oc3ccccc3)cc2)CC1 [Example 14]	6.33	10.00				pIC50 ([3]; Inhibition Table A): > 10.00
CS(=O)(=O)N1CCC(C(=O)NO)(S(=O)(=O)c2ccc(Oc3ccccc3)cc2)CC1 [Example 18]	6.10					pIC50 [2]: 9.30; IC50 [3]: 0.3 nM
O=C(NO)C1(S(=O)(=O)c2ccc(SC3CCCCC3)cc2)CCNCC1 [Example 19]	< 5.00	8.05				pIC50 ([3]; Inhibition Table A): 7.86
O=C(NO)C1(S(=O)(=O)c2ccc(N3CCN(c4ccccc4)CC3)cc2)CCOCC1 [Example 20]	5.00	8.77				IC50 [3]: 23.5 nM
O=C(NO)C1(S(=O)(=O)c2ccc(Sc3ccc(F)cc3)cc2)CCNCC1 [Example 22]	< 5.00	8.92				pIC50 ([3]; Inhibition Table A): 9.05
C#CCN1CCC(C(=O)NO)(S(=O)(=O)c2ccc(Oc3ccc(-n4ccnc4)cc3)cc2)CC1 [Example 23]	5.64	9.70				pIC50 ([3]; Inhibition Table A): > 10.00
O=C(NO)C1(S(=O)(=O)c2ccc(Sc3ccc(Cl)cc3)cc2)CCOCC1 [Example 25]	< 5.00	8.52				pIC50 ([3]; Inhibition Table A): 8.59
C=CCN1CCC(C(=O)NO)(S(=O)(=O)c2ccc(Sc3ccccc3)cc2)CC1 [Example 28]	6.11	> 10.00				pIC50 ([3]; Inhibition Table A): > 10.00
O=C(NO)C1(S(=O)(=O)c2ccc(Oc3ccccc3)cc2)CCN(CC2CC2)CC1 [Example 29]	< 5.00					pIC50 [2]: 9.52; pIC50 ([3]; Inhibition Table A): 9.82
O=C(CN1CCCC1)N1CCC(C(=O)NO)(S(=O)(=O)c2ccc(Oc3ccccc3)cc2)CC1 [Example 31, N-hydroxy-4-[(4-phenoxyphenyl)sulfonyl]-1-(1-pyrrolidinylacetyl)-4-piperidine Carboxamide, Monohydrochloride]			6.43	9.70	> 10.00	
CC(C)N1CCC(C(=O)NO)(S(=O)(=O)c2ccc(Sc3ccccc3)cc2)CC1 [Example 34, N-hydroxy-1-(1-methylethyl)-4-[[4-(phenylthio)phenyl]sulfonyl]-4-piperidinecarboxamide, Monohydrochloride]				8.92	8.96	pIC50 [1]: < 5.00
CC(=O)N1CCC(C(=O)NO)(S(=O)(=O)c2ccc(Oc3ccc4c(c3)OCO4)cc2)CC1 [Example 37, 1-acetyl-4-[[4-(1,3-benzodioxol-5-yloxy)phenyl]sulfonyl]-N-hydroxy-4-piperidinecarboxamide, Monohydrochloride]			6.00	9.52	9.70	
C#CCN1CCC(C(=O)NO)(S(=O)(=O)c2ccc(Oc3cc(OC)cc(OC)c3)cc2)CC1 [Example 39, 4-[[4-(3,5-dimethoxyphenoxy)phenyl]sulfonyl]-N-hydroxy-1-(2-propynyl)-4-piperidinecarboxamide, Monohydrochloride]			< 5.00	7.61	6.64	

SMILES	pIC50 ([1]; Inhibition Table A)	pIC50 [2, 4]	pIC50 ([1]; Inhibition Table B)	pIC50 [2, 5]	pIC50 ([3]; Inhibition Table B)	other results
C#CCN1CCC(C(=O)NO)(S(=O)(=O)c2ccc(Oc3cccc(C)c3)cc2)CC1 [Example 41, N-hydroxy-4-[[4-(3-methylphenoxy)phenyl]sulfonyl]-1-(2-propynyl)-4-piperidinecarboxamide, Monohydrochloride]			5.92	9.70	9.82	
C#CCN1CCC(C(=O)NO)(S(=O)(=O)c2ccc(SC3CCCC3)cc2)CC1 [Example 45, 4-[[4-(Cyclopentylthio)-phenyl]sulfonyl]-N-hydroxy-1-(2-propynyl)-4-piperidinecarboxamide, Monohydrochloride]			5.06	8.77	8.60	
CC1(C)OCC(C(=O)NO)(S(=O)(=O)c2ccc(Oc3ccccc3)cc2)CO1 [Example 48]			6.68	9.60	9.70	
O=C(NO)C1(S(=O)(=O)c2ccc(Sc3ccccc3)cc2)CCSCC1 [Example 49, tetrahydro-N-hydroxy-4-[[4-(phenylthio)phenyl]sulfonyl]-2H-thiopyran-4-carboxamide]			< 5.00	7.05	7.11	
COc1ccc(Sc2ccc(S(=O)(=O)C3(C(=O)NO)CCSCC3)cc2)cc1 [Example 51, Tetrahydro-N-hydroxy-4-[[4-[(4-methoxypheny)thio]phenyl]sulfonyl]-2H-thiopyran-4-carboxamide]			5.26	8.89	9.15	
O=C(NO)C1(S(=O)(=O)c2ccc(Sc3ccccc3)cc2)CCS(=O)(=O)CC1 [Example 52]			< 5.00	8.23	8.57	
CNC(=O)C1CCCN(c2ccc(S(=O)(=O)C3(C(=O)NO)CCOCC3)cc2)C1 (centres unmarked) [Example 139]					6.00	
O=C(C1CCCN(c2ccc(S(=O)(=O)C3(C(=O)NO)CCOCC3)cc2)C1)N1CCOCC1 (centres unmarked) [Example 140]					6.00	
C[C@@H]1CN(C(=O)C2CCCN(c3ccc(S(=O)(=O)C4(C(=O)NO)CCOCC4)cc3)C2)C[C@H](C)O1 (some centres unmarked) [Example 169]			5.00			
O=C(C1CCCN(c2ccc(S(=O)(=O)C3(C(=O)NO)CCOCC3)cc2)C1)N1CCCC2CCCCC21 (centres unmarked) [Example 170]			5.00			
N[C@H]1CCN(C(=O)C2CCN(c3ccc(S(=O)(=O)C4(C(=O)NO)CCOCC4)cc3)CC2)C1 [Example 175]			5.00			
C[C@@H]1CN(C(=O)C2CCN(c3ccc(S(=O)(=O)C4(C(=O)NO)CCOCC4)cc3)CC2)C[C@H](C)O1 [Example 176]			< 5.00			
O=C(C1CCN(c2ccc(S(=O)(=O)C3(C(=O)NO)CCOCC3)cc2)CC1)N1CCCC1 [Example 179]				7.00		
CCCCNC(=O)C1CCN(c2ccc(S(=O)(=O)C3(C(=O)NO)CCOCC3)cc2)CC1 [Example 181]			5.00			
O=C(NC1CCCCCC1)C1CCN(c2ccc(S(=O)(=O)C3(C(=O)NO)CCOCC3)cc2)CC1 [Example 194]			5.00			
O=C(NCc1ccncc1)C1CCN(c2ccc(S(=O)(=O)C3(C(=O)NO)CCOCC3)cc2)CC1 [Example 195]			5.00		7.00	
COCCN1CCC(C(N)=O)(S(=O)(=O)c2ccc(Oc3ccc(OC(F)(F)F)cc3)cc2)CC1 [Example 444, 1-(2-methoxyethyl)-4-[[4-[4-(trifluoromethoxy)phenoxy]phenyl]sulfonyl]-4-piperidinecarboxamide]						pIC50 [1]: < 5.00
C#CCN1CCC(C(N)=O)(S(=O)(=O)c2ccc(Sc3ccccc3)cc2)CC1 [Example 445, 4-[(4-phenylthiophenyl)sulfonyl]-1-(2—propynyl)-4-piperidinecarboxamide]			< 5.00			
